Assay: Krafft point of the anionic surfactant
Format: physicochemical
Details: Krafft point at 10 mass% in aqueous solution; unit not given, Krafft points in °C
Description: The present invention uses a view that the Krafft point is a melting point of a hydrated solid of a surfactant. That is, the Krafft point is the temperature at which a surfactant precipitates when an aqueous solution thereof is cooled. In some kinds of surfactants, the Krafft point changes depending on the concentration. In the present invention, an anionic surfactant having a Krafft point of 45°C or more at a concentration of 10 mass% in an aqueous solution is used. The Krafft point can be measured using a differential scanning calorimetry.

SMILES | Kp (Krafft point)
CCCCCCCCCCCCCCCCCC(=O)N(C)CCS(=O)(=O)[O-].[Na+] [Sodium N-stearoyl-N-methyltaurate] | Sodium N-stearoyl-N-methyltaurate (Kp = 50) (Nikkol SMT, manufactured by Nikko Chemicals Co., Ltd.)
CCCCCCCCCCCC(=O)[O-].[Na+] [Sodium laurate] | Sodium laurate (Kp ≈ 38)
CCCCCCCCCCCCCCCCCC(=O)[O-].[Na+] [Sodium stearate] | Sodium stearate (Kp = 79)
